Results: PMC4163382, “Symbiotic Plant Peptides Eliminate Candida albicans Both In Vitro and in an Epithelial Infection Model and Inhibit the Proliferation of Immortalized Human Cells” (BioMed Research International, 2014)
Peptide text beside a SMILES is read from it.

How the values were obtained:
C. albicans WO-1 cells [1] = experiment: Cell permeability assay (calcein release); format: cell-based, Candida albicans; conditions: calcein-loaded C. albicans WO-1, 10 mM potassium phosphate buffer pH 7.0, peptide 50 μg/mL, fluorescence 485/530 nm
Method: Cell permeability was monitored by the release of the intracellularly accumulated dye calcein. Overnight C. albicans WO-1 cells were washed twice with and resuspended in 10 mM potassium phosphate buffer (pH = 7.0) at a concentration of 10^7 cells mL^−1. Cells were loaded with acetomethoxy-calcein at a final concentration of 5 μM for 2 hours at room temperature. Cells were washed three times to remove the extracellular dye and then 100 μL of the suspension was transferred to FIA black 96-well plates. NCR peptides were then added at a concentration of 50 mg/L, and the release of calcein (formed by the cells' esterases) was measured by its fluorescence in a microtiter plate reader (FLUOstar OPTIMA) at excitation and emission wavelengths of 485 nm and 530 nm, respectively. Calcein efflux was calculated as previously reported.

[2] = test system: C. albicans strains WO-1 and Sc 5314; experiment: Microdilution antifungal assay, summary for C. albicans; format: cell-based, Candida albicans; conditions: strains WO-1 and Sc 5314, LSM medium, microdilution plate assay
Method: (§1) The antifungal activity of the NCR peptides against C. albicans strains and other Candida species was determined in vitro using 96-well flat bottom microtiter plates (Sarstedt). Fifty microliters of dilutions from each peptide (final concentrations in the assays ranged from 2.5 to 100 μg/mL) was added to 50 μL of 10^4 cells mL^−1 and 10^5 cells mL^−1 in LSM. The plates were incubated at 30°C and the peptide concentrations that prevented the germination of yeast cells were determined by microscopic analysis and measurement of absorbance at 600 nm with a microtiter plate reader (FLUOstar OPTIMA; BMG Labtech) after 24 and 48 hours. Minimal inhibitory concentration (MIC) was determined as the lowest concentration of the peptide at which there was no visible and measurable growth after 24 hours of incubation. To determine whether the antifungal effect was fungistatic or fungicidal, 10 μL from each treatment was dropped onto solid YPD plate after 3 and 24 hours. Plates were incubated at 30°C for 48 hours and developing colonies were observed. Minimal fungicidal concentration (MFC) was defined where no fungal growth could be observed.

[3] = test system: PK E6/E7 vaginal epithelial cells; experiment: MTT assay, cytotoxicity on human epithelial cells; format: cell-based; conditions: for Concentration that provoked cell death / toxicity: peptide in PBgluc 3 hours at 37°C, 24 hours regeneration in CKM, MTT 4 hours, 560 nm
Method: The immortalized human vaginal epithelial cell line PK E6/E7 [15] was cultured in serum-free CKM supplemented with 0.005 μg/mL recombinant epidermal growth factor, 50 μg/mL bovine pituitary extract, L-glutamine, and antibiotic/antimycotic solution (Life Technologies) in a CO2 thermostat at 37°C [16]. Cells at 60–70% confluence were used in subsequent experiments.
MTT Assay. PK E6/E7 vaginal epithelial cells were seeded in the wells of a 96-well plate at a density of 1 × 10^4 cells per well in a final volume of 100 μL. CKM was then aspirated and 100 μL of the appropriate peptide diluted in PBgluc was added. After 3 hours of incubation at 37°C, the peptide solution was removed, and the cells were let to regenerate in CKM for 24 hours. Then 5 mg/mL 3-[4,5-dimethylthiazol-2-yl]-2,5-diphenyltetrazolium bromide (MTT) was added to each well and the plate was placed to 37°C for 4 hours. The amount of formazan formed by the activity of the mitochondrial succinate dehydrogenase of living cells was measured by using a microtiter plate reader (FLUOstar OPTIMA) at the wavelength of 560 nm.
10 μg/mL of primycin, a macrolide lactone antibiotic complex that rapidly kills PK cells, was used as a control for cytotoxicity in both assays.
(§2) MTT assays and impedance measurements were performed in at least four technical parallels and two biological replicates; all the data are presented as mean ± standard deviation. Significance was calculated with Newman-Keuls post hoc test using the GraphPad Prism version 5 for Windows and a probability (P) value of less than 0.05 was considered significant.

[4] = test system: PK E6/E7 vaginal epithelial cells infected with C. albicans WO-1; experiment: Vaginal epithelial cell - C. albicans coculture (RTCA); format: cell-based, human; conditions: PK E6/E7 + C. albicans WO-1, MOI of 5, 3 hours coculture then peptide 3 hours in PBgluc at both 25 and 50 μg/mL, RTCA at 40 hours
Method: PK E6/E7 cells were seeded in 96-well E-plates as described above for RTCA. On the next day, an overnight culture of C. albicans WO-1 was diluted to OD = 1 and let to grow until OD = 1.5–2. The fungal cell suspension was diluted in antibiotic/antimycotic-free CKM and was added to the human cells with a multiplicity of infection (MOI) of 5. After 3 hours of coculture at 37°C, CKM medium was replaced with NCR peptides in PBgluc. After 3 hours of incubation, peptides were removed and 200 μL of fresh antibiotic/antimycotic-free CKM was added. Subsequent measurements were performed as described above.
as §2

[5] = test system: C. albicans strain Sc5314; format: cell-based, Candida albicans; conditions: C. albicans Sc5314, LSM medium, 30°C, 24 hours of treatment, peptide 2.5 to 100 μg/mL, microscopy and absorbance at 600 nm; mean (±spread)
Method: (§3) The C. albicans strains WO-1 and Sc5314 were maintained on YPD medium (1% (w/v) yeast extract, 2% (w/v) peptone, 2% (w/v) dextrose, 2% (w/v) agar; Beckton, Dickinson and Company). Hyphal growth was induced in complete keratinocyte medium (CKM; Life Technologies) without serum. The effect of the NCR peptides on free-living fungi was investigated either in PBgluc buffer (1 mM KH2PO4, 3 mM Na2HPO4 × 7H2O, 5% glucose, pH = 7.0) or in low-salt fungal medium (LSM) composed of 5 mM K2HPO4, 100 μM MgSO4, 10 μM FeCl, 0.2 μM CoCl2, 0.2 μM CuSO4, 4 μM Na2MoO4, 1 μM H3BO3, 0.2 μM KI, 1 μM ZnSO4, 0.2 μM MnSO4, 2% glucose, 0.2% asparagine, 40 μg/mL methionine, 4 μg/mL myo-inositol, 0.4 μg/mL biotin, 2 μg/mL thiamine-HCl, and 0.4 μg/mL pyridoxine-HCl.
as §1

C. albicans strain WO-1 = format: cell-based, Candida albicans; conditions: C. albicans WO-1, LSM medium, 30°C, 24 hours of treatment, peptide 2.5 to 100 μg/mL, microscopy and absorbance at 600 nm; mean (±spread)
Method: as §3, §1

C. albicans WO-1 = format: cell-based, Candida albicans; conditions: 10 μL dropped onto solid YPD, 30°C for 48 hours, mean (±spread); for Minimal fungicidal concentration, 3 h: C. albicans WO-1, 3 hours of treatment; for Minimal fungicidal concentration, 24 h: C. albicans WO-1, 24 hours of treatment
Method: as §1

C. albicans WO-1 cells [6] = experiment: Localization of FITC-labeled peptides (confocal microscopy); format: cell-based, Candida albicans; conditions: 5 μg/mL (sublethal), 3 hours at 30°C in LSM
Method: C. albicans WO-1 cells were labeled with 5 μg/mL of the FM4-64 membrane stain (Life Technologies) and 0.5 μg/mL of the DNA stain 4′,6-diamidino-2-phenylindole (DAPI, Sigma) for 15 minutes after 2 hours of peptide treatment. Images were captured with an Axio Observer Z.1 (Zeiss) fluorescent microscope. For studying the interaction of peptides with the fungus, an overnight C. albicans WO-1 culture was diluted in LSM and treated with FITC-conjugated peptides (at the sublethal concentration of 5 μg/mL) for 3 hours at 30°C. Cells were then centrifuged for 4 minutes at 600 rpm and the unbound peptides were removed by gentle pipetting of the supernatant and cells were resuspended in LSM. The cell suspension was dropped onto a coverslip and images were taken with an Olympus FluoView FV1000 confocal laser-scanning microscope.

Compound | Calcein (dye) efflux (C. albicans WO-1 cells [1]) | Anticandidal activity against the yeast form of growing C. albicans [2] | Concentration that provoked cell death / toxicity [3] [µg/mL] | Prevention of C. albicans induced epithelial cell death [4] | Minimal inhibitory concentration, Sc5314 [5] | Minimal inhibitory concentration, WO-1 (C. albicans strain WO-1) | Minimal fungicidal concentration, 3 h (C. albicans WO-1) | Minimal fungicidal concentration, 24 h (C. albicans WO-1) | Localization of FITC-labeled peptide in C. albicans cells (C. albicans WO-1 cells [6]) | Efficiency of killing epithelial cells ([3]; 10 μg/mL, MTT assay, cytotoxic control)
CSCC[C@H](NC(=O)[C@H](CCCCN)NC(=O)[C@H](CCCNC(=N)N)NC(=O)[C@@H]1CCCN1C(=O)[C@H](CS)NC(=O)[C@H](Cc1c[nH]cn1)NC(=O)CNC(=O)[C@@H](NC(=O)[C@H](Cc1c[nH]cn1)NC(=O)[C@H](CCCCN)NC(=O)[C@H](CS)NC(=O)CNC(=O)[C@H](CC(N)=O)NC(=O)[C@H](CCCCN)NC(=O)[C@@H](N)CCSC)[C@@H](C)O)C(=O)N[C@@H](CS)C(=O)NCC(=O)N[C@@H](C)C(=O)N[C@@H](CCCCN)C(=O)N[C@H](C(=O)N[C@H](C(=O)N[C@@H](CCCCN)C(=O)N[C@@H](CS)C(=O)N[C@@H](CCCNC(=N)N)C(=O)N[C@@H](CC(N)=O)C(=O)N[C@@H](CC(N)=O)C(=O)N[C@@H](CCCCN)C(=O)N[C@@H](CS)C(=O)N[C@@H](CCC(N)=O)C(=O)N[C@@H](CS)C(=O)N[C@H](C(=O)N[C@@H](CCC(N)=O)C(=O)N[C@@H](CC(C)C)C(=O)O)C(C)C)[C@@H](C)O)[C@@H](C)O [NCR192] (H-MKNGCKHTGHCPRKMCGAKTTKCRNNKCQCVQL-OH; N-terminus and C-terminus assumed) | 22.82 ± 11.16% | exhibited anticandidal activity | 100 | could be prevented |  |  |  |  |  | 
CC[C@H](C)[C@H](NC(=O)[C@H](CS)NC(=O)CNC(=O)[C@H](CC(N)=O)NC(=O)[C@@H](N)CCCNC(=N)N)C(=O)N[C@H](C(=O)N[C@@H](CC(=O)O)C(=O)N1CCC[C@H]1C(=O)N[C@@H](CCCNC(=N)N)C(=O)N[C@@H](CS)C(=O)N1CCC[C@H]1C(=O)N[C@@H](Cc1ccc(O)cc1)C(=O)N[C@@H](CCC(N)=O)C(=O)N[C@@H](CCC(N)=O)C(=O)N[C@@H](CS)C(=O)N[C@@H](CCCNC(=N)N)C(=O)N[C@@H](CCCNC(=N)N)C(=O)N1CCC[C@H]1C(=O)N[C@@H](CC(C)C)C(=O)N[C@@H](Cc1ccc(O)cc1)C(=O)N[C@@H](CS)C(=O)N[C@@H](CCCNC(=N)N)C(=O)N[C@@H](CCCNC(=N)N)C(=O)N[C@@H](CCCNC(=N)N)C(=O)O)C(C)C [NCR247] (H-RNGCIVDPRCPYQQCRRPLYCRRR-OH; N-terminus and C-terminus assumed) | 29.65 ± 12.6% | exhibited anticandidal activity | 100 | could be prevented | 25 (±2) μg/mL | 14 (±9) μg/mL | 14 (±10) μg/mL | 16.5 (±13) μg/mL |  | 
EDIGHIKYCGIVDDCYKSKKPLFKIWKCVENVCVLWYK [NCR169] | no calcein release |  | 100 | unable to prevent vaginal epithelial cell death |  |  |  |  |  | 
RLNTTFRPLNFKMLRFWGQNRNIMKHRGQKVHFSLILSDCKTNKDCPKLRRANVRCRKSYCVPI [NCR335, cationic chemically synthesized mature NCR peptide of Medicago truncatula] | 43.12 ± 13.05% | exhibited anticandidal activity | > 25 | could be prevented | 12.5 (±2.5) μg/mL | 11 (±1) μg/mL | 7 (±1) μg/mL | 8 (±2) μg/mL |  | 
SFLGTFISSCKRDKDCPKLYGANFRCRKGTCVPPI [NCR035, chemically synthesized mature nodule-specific cysteine-rich (NCR) peptide of Medicago truncatula] |  |  |  |  |  |  |  |  | did not label the C. albicans cells | 
VNDCIRIHCKDDFDCIENRLQVGCRLQREKPRCVNLVCRCLRR [NCR055, chemically synthesized mature nodule-specific cysteine-rich (NCR) peptide of Medicago truncatula] |  |  |  |  | 50 (±3) μg/mL | 50 (±4) μg/mL |  |  |  | 
primycin [reference compound] |  |  |  |  |  |  |  |  |  | about 90%
